Data: patent US9241936B2, “Use of rupatadine in the manufacture of pharmaceutical composition for treating chronic obstructive pulmonary disease” (BEIJING WEIFENG YIMIN BIO-TECHNOLOGY LIMITED COMPANY, priority 2012, dated 2016)
Entries after “also recorded” stand apart in the source; their conditions may differ. Like-named read-outs stand apart in the source and are kept apart here.

What was measured:
[1] = test system: histamine or PAF; details: cited from earlier work; for inhibition of blister: dogs, blister by subcutaneous histamine or PAF, rupatadine 0.3-10 mg/kg, oral administration
[2] = test system: smoking-induced COPD mice; assay: amount of inflammatory cells in bronchoalveolar lavage fluid of smoking-induced COPD mice; format: in vivo, C57BL/6 mice
Text: Main agents and animals for experiments: Cigarettes used in the experiment, type 3R4F, were purchased from Tobacco Research Center, University of Kentucky, USA. C57BL/6 mice on level SPF used in the experiment (male, aged 6-8 weeks, 16-18 g) were purchased from Institute of Animal, Chinese academy of medical sciences.
Preparation of COPD animal model: C57BL/6 mice were put in a smoke box and 5 cigarettes were inhaled without filter tip each time. The ratio of smoke to air was 1:6, and the whole flow rate of gas was 150 ml/min. Smoking experiment was conducted 4 times a day, 30 minutes for each time and last for 24 weeks.
Therapy: grouping and feeding animal models with medicaments. The groups were as table 1:
The mice were dissected at neck and the weasand was exposed for intubation. The lavage amount of PBS was 0.8 ml and the lavage was conducted 3-5 times. The lavage solution was recycled and centrifuged at 1500 r for 10 minutes at 4° C. The supernate was recycled and kept at −20° C. for the test of cytokines.
Cells were reselected and precipitated by 1 ml 1% BSA in PBS. 10 μl resuspension solution was taken for calculating the amount of cells and the hematology analyzer was used for analysis. It can be seen from FIG. 1, compared with the sham-operation group, the total number of hemameba (FIG. 1A), monocyte (FIG. 1B), neutrophile granulocyte (FIG. 1C), lymphocyte (FIG. 1D), basophil (FIG. 1E), and eosinophils (FIG. 1F) in bronchoalveolar lavage fluid of smoking-induced COPD mice increased extremely remarkably.

[3] = test system: smoking-induced COPD mice; assay: amount of inflammatory cytokines in bronchoalveolar lavage fluid of smoking-induced COPD mice (ELISA); format: in vivo, C57BL/6 mice
Protocol: Main agents and animals for experiments: Cigarettes used in the experiment, type 3R4F, were purchased from Tobacco Research Center, University of Kentucky, USA. C57BL/6 mice on level SPF used in the experiment (male, aged 6-8 weeks, 16-18 g) were purchased from Institute of Animal, Chinese academy of medical sciences. […] C57BL/6 mice were put in a smoke box and 5 cigarettes were inhaled without filter tip each time. The ratio of smoke to air was 1:6, and the whole flow rate of gas was 150 ml/min. Smoking experiment was conducted 4 times a day, 30 minutes for each time and last for 24 weeks. Therapy: grouping and feeding animal models with medicaments. The groups were as table 1: [table] The mice were dissected at neck and the […] exposed for intubation. […] The lavage solution was recycled and centrifuged at 1500 r for 10 minutes at 4° C. The supernate was recycled and kept at -20° C. for the test. 100 μl supernate was taken to conduct ELISA examination, and commercial available ELISA kit was used to test the amount of inflammatory cytokines. It can be seen from FIG. 2, compared with the sham-operation group, the content of IL-2 (FIG. 2A), IL-4 (FIG. 2C), IL-17 (FIG. 2D) increased remarkably in lungs of COPD mice.

[4] = test system: histamine or PAF; details: cited from earlier work
[5] = molecular target: histamine H1 receptors (Cavia porcellus, UniProt P31389); details: cited from earlier work
[6] = cited from earlier work
[7] = test system: macaque; details: 10 mg/Kg; cited from earlier work
[8] = test system: smoking-induced COPD mice; assay: pathological evaluation (HE staining) of lung tissue of smoking-induced COPD mice; format: in vivo, C57BL/6 mice; details: 6 mg/kg i.g. once a day for 4 weeks
Protocol: Main agents and animals for experiments: Cigarettes used in the experiment, type 3R4F, were purchased from Tobacco Research Center, University of Kentucky, USA. C57BL/6 mice on level SPF used in the experiment (male, aged 6-8 weeks, 16-18 g) were purchased from Institute of Animal, Chinese academy of medical sciences. […] C57BL/6 mice were put in a smoke box and 5 cigarettes were inhaled without filter tip each time. The ratio of smoke to air was 1:6, and the whole flow rate of gas was 150 ml/min. Smoking experiment was conducted 4 times a day, 30 minutes for each time and last for 24 weeks. Therapy: grouping and feeding animal models with medicaments. The groups were as table 1: [table] HE staining method is also named Hematoxylin-Eosin staining method. Hematoxylin dye liquor is alkaline, and mainly colors intranuclear chromatin and intracytoplasmic ribosome into bluish violet. Eosin is acidic dye, and mainly colors the components in cytoplasm and extracellular matrix. The lung tissues on the right lower lobe was cut, fixed by 4 wt % paraformaldehyde and then embedded by paraffin. The largest cross-section of the paraffin embedding lung tissue was stained by HE staining method, and the result was shown in FIG. 3.

[9] = test system: patients suffering seasonal or perennial allergic rhinitis; details: cited from earlier work
[10] = test system: PAF; details: whole blood of dogs; read-out: IC50 of platelet aggregation induced by PAF; cited from earlier work
[11] = test system: pulmonary fibrosis induced by Bleomycin of mammals; details: cited from earlier work
[12] = test system: PAF; details: read-out: IC50 of platelet aggregation induced by PAF, cited from earlier work
[13] = test system: histamine H1 receptors; details: cited from earlier work
[14] = test system: mastocytes; details: cited from earlier work
[15] = test system: mouse; details: 1000 mg/Kg; cited from earlier work
[16] = test system: rats, Guinea pigs and dogs; details: cited from earlier work
[17] = test system: TLR4 mutant C3H/HeJ mice with emphysema; assay: pathological evaluation (HE staining) of mice with emphysema induced by TLR4 mutant; format: in vivo; details: i.g. once a day for 4 weeks
Text: Animals for experiment: C3H/HeN wild type mice on SPF level were purchased from Beijing Vitalriver Experimental Animals Limited Company. TLR4 mutant C3H/HeJ mice were purchased from Institute of model animals, Nanjing University.
Method: Fed the SPF mice and the TLR4 mutant mice in experimental animal center of Institute of pharmaceutics research, Chinese academy of medical sciences. Provide free diet under constant temperature and humidity. The mice were killed until they were 3 months old.
Therapy: Grouping and feeding animal models with medicaments.
HE staining method is also named Hematoxylin-Eosin staining Hematoxylin dye liquor is alkaline, and mainly colors intranuclear chromatin and intracytoplasmic ribosome into bluish violet; Eosin is acidic dye, and mainly colors the components in cytoplasm and extracellular matrix.
The lung tissues on the right lower lobe was cut, fixed by 4 wt % paraformaldehyde and then embedded by paraffin. The largest cross-section of the paraffin embedding the lung tissue was stained by HE staining method, and the result was shown in FIG. 4.

[18] = test system: eosinophil; details: cited from earlier work
[19] = bronchoalveolar lavage fluid, 6 mg/kg i.g. once a day for 4 weeks after modeling
[20] = 6 mg/Kg rupatadine treated group
[21] = bronchoalveolar lavage fluid, ELISA, 6 mg/kg i.g. once a day for 4 weeks after modeling

Sequence of histamine H1 receptors (Cavia porcellus, UniProt P31389) (P31389 whole entry): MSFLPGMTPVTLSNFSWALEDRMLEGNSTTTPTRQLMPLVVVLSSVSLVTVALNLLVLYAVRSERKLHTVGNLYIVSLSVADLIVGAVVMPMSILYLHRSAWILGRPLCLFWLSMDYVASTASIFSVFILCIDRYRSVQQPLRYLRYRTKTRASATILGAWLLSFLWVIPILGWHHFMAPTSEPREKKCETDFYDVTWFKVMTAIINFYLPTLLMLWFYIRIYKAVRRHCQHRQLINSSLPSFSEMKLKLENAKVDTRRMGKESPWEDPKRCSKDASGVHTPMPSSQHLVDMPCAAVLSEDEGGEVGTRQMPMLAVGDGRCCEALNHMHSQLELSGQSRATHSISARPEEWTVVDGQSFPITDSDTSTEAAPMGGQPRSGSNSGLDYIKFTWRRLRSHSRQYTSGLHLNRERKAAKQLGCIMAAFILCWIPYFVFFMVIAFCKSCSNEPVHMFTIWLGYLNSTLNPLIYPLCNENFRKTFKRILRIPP

O=C(O)COCCN1CCN(C(c2ccccc2)c2ccc(Cl)cc2)CC1 (stereo not shown) [cetirizine]
inhibition of blister [1]: can only inhibit the blister induced by histamine

CCOC(=O)N1CCC(=C2c3ccc(Cl)cc3CCc3cccnc32)CC1 [loratadine]
inhibition of blister [1]: can only inhibit the blister induced by histamine

Cc1cncc(CN2CCC(=C3c4ccc(Cl)cc4CCc4cccnc43)CC2)c1 [rupatadine, Rupatadine]
amount of various inflammatory cells in bronchoalveolar lavage fluid compared to the model group ([2]; 6 mg/kg rupatadine treated group): could remarkably reduce the amount of various inflammatory cells | Basophil [2, 19]: 24.816 * 10^4 number/mL | Eosinophils [2, 19]: 34.692 * 10^4 number/mL | Lymphocyte [2, 19]: 32.694 * 10^5 number/mL | Monocyte [2, 19]: 49.504 * 10^5 number/mL | Neutrophile granulocyte [2, 19]: 33.864 * 10^5 number/mL | total hemameba [2, 19]: 13.69 * 10^6 number/mL | duration of effect ([1]; after intake of rupatadine): 24 h | time of best potency after intake ([1]; after intake of rupatadine): 4 h | inhibition of blister [1]: can effectively inhibit blister | content of IFN-γ [3, 20]: did not affect the content of IFN-γ | content of various inflammatory cytokines in lungs of COPD mice [3, 20]: could reduce the content of various inflammatory cytokines | IFN-γ [3, 21]: 26.28 pg/mL | IL-2 [3, 21]: 6.71 pg/mL | IL-4 [3, 21]: 6.54 pg/mL | IL-17 [3, 21]: 35.53 pg/mL | inhibition of conjunctivitis ([4]; Guinea pig, induced by histamine or PAF): can inhibit conjunctivitis induced by histamine or PAF | therapy effect of eye drops, times better than loratadine ([4]; applied to eye drops, versus loratadine): 10 times | anti-histamine activity compared with other medicaments ([5]; in vitro): stronger anti-histamine activity than terfenadine, loratadine, cetirizine, hydroxyzine, diphenhydramine; also recorded: the same as desloratadine | IC50 ([5]; read-out: anti-histamine activity IC50, ileum of Guinea pig in vitro): 3.5 nM | anti-histamine activity, times stronger than loratadine ([5]; versus loratadine): 80 times | anti-histamine activity, times stronger than other anti-histamine medicaments ([5]; versus other anti-histamine medicaments): 100 times | time for blood concentration to reach the peak ([6]; after intaking tablet): 1 h | time for blood concentration to reach the peak ([6]; after intaking the capsule): 1.5 h | half-life period ([6]; as stated in b6): 5.9 h | half-life period ([6]; oral administration): 12 h | period of QTC and QRS [7]: would not be extended | lung tissue pathology, structure of alveoli (HE staining) [8]: could effectively recover normal structure of alveoli | alleviation of symptoms relative to placebo ([9]; 2.5 mg, 5 mg, 10 mg, 20 mg per day, two weeks): can alleviate the symptoms more effectively than placebo | effects compared with loratadine ([9]; 10 mg or 20 mg per day rupatadine vs 10 mg per day loratadine, two weeks, seasonal allergic rhinitis): better effects than intaking 10 mg per day loratadine | side effects on central nervous system ([9]; 10 mg per day, compared with cetirizine): little side effects on central nervous system | therapeutic effects compared with ebastine ([9]; 10 mg rupatadine vs 10 mg ebastine daily for 2 weeks, seasonal allergic rhinitis): better therapeutic effects than ebastine | alleviation of symptoms of seasonal allergic rhinitis compared with loratadine and ebastine ([9]; same dosage): can alleviate the symptoms of seasonal allergic rhinitis more than loratadine and ebastine | alleviation of nasal and optical symptoms relative to placebo ([9]; seasonal allergic rhinitis patients, 10 mg and 20 mg per day, two weeks): much more alleviated | IC50 [10]: 290 nM | effect on pulmonary fibrosis induced by Bleomycin ([11]; in vivo): can convert the pulmonary fibrosis induced by Bleomycin | lethal rate caused by pulmonary fibrosis induced by Bleomycin ([11]; mammals): declining the lethal rate | IC50 ([12]; platelet rich plasma (of rabbits)): 2900 nM | IC50 [12]: 200 nM | affinity to histamine H1 receptors [13]: good affinity | selectivity to peripheral nervous receptors H1 [13]: highly selective | inhibition of degranulation of mastocytes [14]: can inhibit | period of QTC and QRS [15]: would not be extended | arrhythmia [16]: nor would it lead to arrhythmia | lung tissue pathology, emphysema / structure of alveoli (HE staining) [17]: could effectively recover normal structure of alveoli | inhibition of chemotaxis of eosinophil [18]: can inhibit

IL-17A: IL-17A used in positive control group, purchased from R&D Company
lung tissue pathology, emphysema / structure of alveoli (HE staining) [17]: could effectively inhibit the further development of emphysema in mice
